Where “and” joins values, the source holds several entries; their conditions need not be identical. Equal entries are not always repeated.
Key:
[1] = molecular target: T1, GPR174 (Homo sapiens, UniProt Q9BXC1); assay: CRA (EC50) of GPR174 inhibitor compounds, tested as described in US 20200276190; assay type: cell-based; conditions: multiple values = separate experiments
Procedure: (§1) Where present, multiple EC50 values correspond to values obtained in separate experiments. […] The activity of the compounds was tested as described in US 20200276190, the disclosure of which is incorporated herein by reference.

[2] = molecular target: T1, GPR174; assay: Human GPR174 CRE activity / Gs signaling; assay type: cell-based
Procedure: as §1

[3] = test system: human CD8 T cells; assay: Example 3: human CD8 T cell 10-day expansion with IL-7+IL-15 and inhibitors, IL-2 after restimulation; assay type: cell-based; conditions: 300 nM Compound #10, 500 nM Compound #49, 100 nM ZM-241385, 18 hours restimulation
Procedure: Purified human CD8 T cells were cultured in 24-well plates with the following conditions per well: • 2 mL X-VIVO™ 15 media (Lonza) • 1 million human CD8 T cells • 2 million Human T-Activator CD3/CD28 Dynabeads® (ThermoFisher) • 10 ng/mL human IL-7 (R&D Systems) • 10 ng/mL human IL-15 (R&D Systems)
and the following individual conditions for FIG. 4: • 1. DMSO vehicle control • 2. […] 300 nM GPR174 inhibitor Compound #10 • 4.
On days 4 and 7 (FIG. 4) or days 3, 5, and 7 (FIG. 5), cultures were washed and seeded at 0.5 cells million per well with the same GPR174 and A2A inhibitor conditions, and with 10 ng/mL IL-7 and 10 ng/mL IL-15.
After 18 hours of culture, supernatants were harvested and analyzed for IL-2 (MesoScale Discovery).

[4] = test system: human CD8 T cells; assay: Example 5: human CD8 T cell expansion with cAMP pathway and p38 inhibitors, IL-2 after restimulation; assay type: cell-based; conditions: 500 μM Rp-8-Br-cAMPS, 0.5 μM doramapimod; for IL-2 production following restimulation, fold above vehicle control (FIG. 8): 10 μM HJC-0197, 5 μM ESI-09
Procedure: (§2) DMSO vehicle control • 2. […] 500 μM Rp-8-Br-cAMPS • 4. […] 0.5 μM doramapimod • 6. Media control
(§3) or the following individual conditions for the experiment shown in FIG. 8, each ±0.5 μM doramapimod: • 1. DMSO vehicle control • 2. 500 μM Rp-8-Br-cAMPS • 3. […] 5 μM ESI-09
(§4) On days 3, 5, and 7, cultures were washed and seeded at 0.5 cells million per well with the same small molecule inhibitor conditions, and with IL-7 and IL-15. On day 10, cells were washed twice (12 mL media each), and restimulated in quadruplicate in 96-well round-bottom plates with the following conditions: • 0.1 mL X-VIVO™ 15 media (Lonza) • 0.05 million cells from each condition • 0.1 million Human T-Activator CD3/CD28 Dynabeads® (ThermoFisher)
(§5) After overnight culture, supernatants were harvested and analyzed for IL-2 content (MesoScale Discovery).

[5] = test system: human CD8 T cells; assay: Example 4: human CD8 T cell expansion with GPR174, A2A, PKA or EPAC inhibitors, IL-2 after restimulation; assay type: cell-based; conditions: 300 nM Compound #10, 100 nM ZM-241385, 500 μM Rp-8-Br-cAMPS, 5 μM ESI-09; 5.5 hours restimulation
Procedure: Purified human CD8 T cells were cultured in 24-well plates with the following conditions per well: • 2 mL X-VIVO™ 15 media (Lonza) • 0.4 million human CD8 T cells (Donor A) • 2 million Human T-Activator CD3/CD28 Dynabeads® (ThermoFisher) • 10 ng/mL human IL-7 (R&D Systems) • 10 ng/mL human IL-15 (R&D Systems)
and the following individual conditions, ±300 nM Compound #10: • 1. DMSO vehicle control • 2. […] 500 μM Rp-8-Br-cAMPS • 4. 5 μM ESI-09
On days 3, 5, and 7, cultures were washed and seeded at 0.5 cells million per well with the same small molecule inhibitor conditions, and with IL-7 and IL-15.
After 5.5 hours of culture, supernatants were harvested and analyzed for IL-2 content (MesoScale Discovery).

[6] = test system: human CD8 T cells; assay: Example 5: T cell number increase during 10-day expansion; assay type: cell-based
Procedure: as §2, §3, §4

[7] = test system: EG7 tumors; assay: Example 7: adoptive transfer of inhibitor-precultured OT-1 T cells into EG7 tumor-bearing mice; assay type: in vivo, mouse
Procedure: (§6) and the following individual conditions: • 1. DMSO vehicle control • 2. 0.2 μM doramapimod • 3. 500 μM Rp-8-Br-cAMPS • 4. 0.2 μM doramapimod+500 μM Rp-8-Br-cAMPS
On day 6 cells were seeded in 6-well plates with […] per well, and on day 8 cells were seeded in T75 flasks in 30 mL media to obtain enough cells to transfer into EG7 tumor-bearing mice.
C57BL/6 female mice were implanted with 6 million EG7 tumor cells subcutaneously on day 4 of the OT-1 T cell expansion. On day 6 of tumor growth (day 10 of OT-1 T cell expansion) OT-1 T cells were washed and injected retro-orbitally into tumor bearing mice that had been sorted into 4 groups with equal tumor volume distributions (n=8). Via retroorbital injection, mice received 2 million OT1 T cells of each of the 4 culture conditions. Tumor volume (mm^3) was calculated as 0.5×(length×width^2), where length represents the largest tumor diameter and width represents the perpendicular tumor diameter. Mice were euthanized when the sum of the two measurements exceeded 30 mm.

[8] = test system: OT-I TCR transgenic CD8 T cells; assay: Example 6: immunophenotyping of OT-I T cells on day 8; assay type: cell-based, mouse; conditions: 8 days of culture
Procedure: as §6
On days 2, 4, 6, and 8, cells were counted, washed, and reseeded at 0.5 million per well in 2 mL media with the same 4 doramapimod/Rp-8-Br-cAMPS conditions and with recombinant mouse IL-2 and IL-7 (5 ng/mL each). On day 8, cells were immunophenotyped with the following antibodies: anti-CD8 BV570, anti-CD62L eFluor450, anti-TCF1/TCF7 PE, anti-CD39 PerCP-eFluor710, anti-CD69 BV605, anti-PD-1 BV711, anti-CTLA-4 APC, and LIVE/DEAD™ Fixable Green Dead Cell Stain.

[9] = test system: OT-I TCR transgenic CD8 T cells; assay: Example 8: OT-I CD8 T cell 9-day expansion with PKA, p38, PI3Kδ inhibitors, IL-2 after restimulation with EG7 cells; assay type: cell-based, mouse
Procedure: DMSO vehicle control • 2. 0.5 μM doramapimod • 3. 500 μM Rp-8-Br-cAMPS • 4. 0.5 μM doramapimod+500 μM Rp-8-Br-cAMPS • 5. 1 μM idelalisib • 6. 1 μM idelalisib+0.5 μM doramapimod • 7. 1 μM idelalisib+500 μM Rp-8-Br-cAMPS • 8. 1 μM idelalisib+0.5 μM doramapimod+500 μM Rp-8-Br-cAMPS
On days 2, 4, 6, and 8, cells were counted, washed and reseeded at 0.5 million per well in 2 mL media with the same 8 conditions and with recombinant mouse IL-2 and IL-7 (5 ng/mL each). […] Cells were also washed three times (12 mL media each), and restimulated in quintuplicate in 96-well round-bottom plates with the following conditions: • 0.1 mL RP10 media • 0.05 million OT-I T cells from each condition • 0.05 million EG7 cells
as §5

[10] = test system: OT-I TCR transgenic CD8 T cells; assay: Example 6: OT-I CD8 T cell expansion with PKA and p38 inhibitors, IL-2 after restimulation with EG7 cells; assay type: cell-based, mouse; conditions: 0.2 μM doramapimod, 500 μM Rp-8-Br-cAMPS
Procedure: as §6
On day 8, cells were immunophenotyped with the following antibodies: anti-CD8 BV570, anti-CD62L eFluor450, anti-TCF1/TCF7 PE, anti-CD39 PerCP-eFluor710, anti-CD69 BV605, anti-PD-1 BV711, anti-CTLA-4 APC, and LIVE/DEAD™ Fixable Green Dead Cell Stain.
as §5

[11] = test system: OT-I TCR transgenic CD8 T cells; assay: Example 9: OT-I CD8 T cell 10-day expansion, immunophenotyping and IL-2 capacity; assay type: cell-based, mouse
[12] = Idelalisib (agent together with 1 μM idelalisib)

T1 sequence (Q9BXC1 whole entry): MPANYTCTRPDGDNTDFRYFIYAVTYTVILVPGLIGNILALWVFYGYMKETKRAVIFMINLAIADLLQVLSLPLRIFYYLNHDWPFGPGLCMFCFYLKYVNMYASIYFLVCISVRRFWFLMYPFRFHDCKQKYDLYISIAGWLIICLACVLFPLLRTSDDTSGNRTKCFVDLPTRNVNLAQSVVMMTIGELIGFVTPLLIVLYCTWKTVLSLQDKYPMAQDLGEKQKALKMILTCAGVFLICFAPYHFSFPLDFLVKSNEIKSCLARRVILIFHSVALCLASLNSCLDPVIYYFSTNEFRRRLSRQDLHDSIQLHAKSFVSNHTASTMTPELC

CCOC(=O)N1CCN(c2cc(N3CCC(C)CC3)c(F)cc2[N+](=O)[O-])CC1 [Compound 1]
EC50 [1]: 1500 nM and 900 nM

CC(=O)N1CCN(c2cc(N3CCCCC3)c(F)cc2[N+](=O)[O-])CC1 [Compound 2]
EC50 [1]: 3300 nM and 3000 nM and 5100 nM

CC(=O)c1ccc(N2CCN(C(=O)c3ccc(F)cc3)CC2)c(F)c1 [Compound 3]
Human GPR174 CRE Activity (type of modulation) [2]: Antagonist or allosteric modulator
EC50 [1]: 4100 nM

CCCC(=O)c1ccc(N2CCN(S(=O)(=O)c3ccc(C)cc3)CC2)c(F)c1 [Compound 4]
Human GPR174 CRE Activity (type of modulation) [2]: Antagonist
competition with the GPR174 agonist LysoPS [2]: found to compete with the GPR174 agonist LysoPS
EC50 [1]: 200 nM

O=C(c1ccccc1)N1CCN(c2cc(N3CCCCC3)c(F)cc2[N+](=O)[O-])CC1 [Compound 6]
EC50 [1]: 1400 nM

Cc1ccc(-c2nnc(Nc3ccccc3)c3ccccc23)cc1S(N)(=O)=O [Compound 19]
Human GPR174 CRE Activity (type of modulation) [2]: Antagonist or allosteric modulator

Cc1ccccc1Nc1nnc(-c2ccc(C)c(S(N)(=O)=O)c2)c2ccccc12 [Compound 20]
Human GPR174 CRE Activity (type of modulation) [2]: Antagonist or allosteric modulator
EC50 [1]: 5000 nM

Cc1cc(Cc2ccc(NC(=O)c3cccs3)c(C)c2)ccc1NC(=O)c1cccs1 [Compound 21]
Human GPR174 CRE Activity (type of modulation) [2]: Antagonist or allosteric modulator
EC50 [1]: 2700 nM

CCOc1ccc(C2C3=C(CCCC3=O)NC3=C2C(=O)c2ccccc23)cc1 (centres unmarked) [Compound 23]
EC50 [1]: 2900 nM

CC(C)Oc1ccc(C2C3=C(CCCC3=O)NC3=C2C(=O)c2ccccc23)cc1 (centres unmarked) [Compound 49]
IL-2 production following restimulation, fold vs vehicle (FIG. 5) [3]: 1.9 fold

O=C(N/N=C/c1cc(Cl)ccc1O)c1ccncc1 [Compound 57]
Human GPR174 CRE Activity (type of modulation) [2]: Antagonist or allosteric modulator

Cc1cc(C(=O)N/N=C/c2cc(Br)ccc2O)c(C)o1 [Compound 58]
Human GPR174 CRE Activity (type of modulation) [2]: Antagonist or allosteric modulator

S=C(NCc1ccco1)Nc1ccc(I)cc1 [Compound 59]
Human GPR174 CRE Activity (type of modulation) [2]: NM (“NM” refers to “non-modulator.”)

CC(C)(C)c1cc(C(=O)/C(C#N)=N/Nc2cccc(Cl)c2)no1 [ESI-09]
IL-2 production following restimulation, fold above vehicle control (FIG. 8) [4]: absent or negligible
IL-2 production following restimulation, fold increase vs vehicle (FIG. 6) [5]: no impact on IL-2 production
T cell growth during the 10-day culture relative to vehicle-treated cells (FIG. 8) [6]: attenuated T cell expansion

Cc1ccc(C)c(CSc2nc(C3CCCC3)c(C#N)c(=O)[nH]2)c1 [HJC-0197]
IL-2 production following restimulation, fold above vehicle control (FIG. 8) [4]: absent or negligible

Cc1ccc(-n2nc(C(C)(C)C)cc2NC(=O)Nc2ccc(OCCN3CCOCC3)c3ccccc23)cc1 [doramapimod]
tumor growth / tumor volume after transfer of precultured OT-1 T cells ([7]; 2 million OT-1 T cells expanded 10 days with 0.2 μM doramapimod and/or 500 μM Rp-8-Br-cAMPS, retro-orbital, relative to vehicle control cells): significantly halted and delayed tumor growth
survival of tumor-bearing mice ([7]; OT-1 T cells precultured with inhibitor(s), relative to vehicle group): intermediate survival times
IL-2 production following restimulation, fold above vehicle control (FIG. 8) [4]: 1.8 fold
IL-2 production following restimulation, fold vs vehicle (FIG. 7) ([4]; GPR174+A2A inhibitors, overnight restimulation): 3.2 fold
increase in cells expressing both CD62L and TCF1/TCF7 relative to vehicle control [8]: smaller increases
percentage of OT-I T cells expressing both CD39 and CD69 ([8]; vehicle 22%): smaller reductions
T cell growth during the 10-day culture relative to vehicle-treated cells (FIG. 8) [6]: very little effect on cell growth
fold-increase in T cell number during the 10-day expansion (FIG. 7) ([6]; vehicle and media controls approximately 50-fold): approximately 50 fold
Fold-change in IL-2 production relative to Vehicle control [9, 12]: 65.0
Fold-change in IL-2 production relative to Vehicle control ([9]; column Vehicle (without idelalisib), 0.5 μM doramapimod, 500 μM Rp-8-Br-cAMPS): 2.2
IL-2 production from 8-day OT-I cultures, fold vs vehicle control ([10]; day 8 restimulation with EG7 cells): 4.9 fold
IL-2 production from 10-day OT-I cultures, fold over vehicle control ([10]; day 10 restimulation with EG7 cells): 6.8 fold

CC[C@H](Nc1ncnc2[nH]cnc12)c1nc2cccc(F)c2c(=O)n1-c1ccccc1 [idelalisib]
TCF-1 positive cells ([11]; Vehicle 10%): 27%
CTLA-4 positive cells ([11]; Vehicle 41%): 28%
PD-1 positive cells ([11]; Vehicle 75%): 75%
CD39 positive cells ([11]; Vehicle 87%): 63%
TIM-3 positive cells ([11]; Vehicle 88%): 60%
CD69 positive cells ([11]; Vehicle 95%): 74%
Fold-change in IL-2 production relative to Vehicle control [9, 12]: 24.0
